The NIST ThermoML archive (doi:10.1016/j.fluid.2008.03.004)

Experiment: xn = mol fraction of the nth substance listed
Settings: 101 kPa, Liquid; for speed of sound: Sing-around technique in a fixed-path interferometer

CCOC(C)(C)C [2-ethoxy-2-methylpropane] + Cc1ccc(C)cc1
Settings	mass density [kg/m3]	speed of sound [m/s]
288.15 K, x1 = 0.062	857.461	1332.5
288.15 K, x1 = 0.123	849.969	1315.3
288.15 K, x1 = 0.238	836.401	1283.6
288.15 K, x1 = 0.35	822.903	1252.6
288.15 K, x1 = 0.455	810.328	1223.7
288.15 K, x1 = 0.557	798.162	1195.8
288.15 K, x1 = 0.654	786.517	1169.2
288.15 K, x1 = 0.746	775.593	1144.4
288.15 K, x1 = 0.834	764.97	1120.8
288.15 K, x1 = 0.902	756.828	1102.5
288.15 K, x1 = 0.959	749.995	1087.2
288.15 K, x1 = 1	744.955	1076.4
290.65 K, x1 = 0.062	855.329	1321.8
290.65 K, x1 = 0.123	847.837	1304.4
290.65 K, x1 = 0.238	834.222	1272.7
290.65 K, x1 = 0.35	820.676	1241.5
290.65 K, x1 = 0.455	808.058	1212.6
290.65 K, x1 = 0.557	795.855	1184.6
290.65 K, x1 = 0.654	784.174	1158
290.65 K, x1 = 0.746	773.205	1133.1
290.65 K, x1 = 0.834	762.549	1109.4
290.65 K, x1 = 0.902	754.379	1091
290.65 K, x1 = 0.959	747.527	1076
290.65 K, x1 = 1	742.482	1065.1
293.15 K, x1 = 0.062	853.16	1311
293.15 K, x1 = 0.123	845.64	1293.7
293.15 K, x1 = 0.238	831.974	1261.7
293.15 K, x1 = 0.35	818.389	1230.6
293.15 K, x1 = 0.455	805.723	1201.5
293.15 K, x1 = 0.557	793.481	1173.4
293.15 K, x1 = 0.654	781.767	1146.8
293.15 K, x1 = 0.746	770.753	1121.7
293.15 K, x1 = 0.834	760.076	1098.1
293.15 K, x1 = 0.902	751.872	1079.6
293.15 K, x1 = 0.959	745.006	1064.5
293.15 K, x1 = 1	739.947	1053.7
295.65 K, x1 = 0.062	850.963	1300.3
295.65 K, x1 = 0.123	843.426	1282.9
295.65 K, x1 = 0.238	829.705	1250.9
295.65 K, x1 = 0.35	816.087	1219.6
295.65 K, x1 = 0.455	803.381	1190.5
295.65 K, x1 = 0.557	791.102	1162.2
295.65 K, x1 = 0.654	779.339	1135.5
295.65 K, x1 = 0.746	768.276	1110.5
295.65 K, x1 = 0.834	757.573	1086.7
295.65 K, x1 = 0.902	749.342	1068.2
295.65 K, x1 = 0.959	742.457	1053.1
295.65 K, x1 = 1	737.374	1042.2
298.15 K, x1 = 0.062	848.771	1289.8
298.15 K, x1 = 0.123	841.223	1272.5
298.15 K, x1 = 0.238	827.443	1240.2
298.15 K, x1 = 0.35	813.789	1208.9
298.15 K, x1 = 0.455	801.037	1179.6
298.15 K, x1 = 0.557	788.722	1151.4
298.15 K, x1 = 0.654	776.911	1124.5
298.15 K, x1 = 0.746	765.812	1099.4
298.15 K, x1 = 0.834	755.077	1075.5
298.15 K, x1 = 0.902	746.808	1057
298.15 K, x1 = 0.959	739.904	1041.9
298.15 K, x1 = 1	734.806	1031
300.65 K, x1 = 0.062	846.559	1279.4
300.65 K, x1 = 0.123	839.002	1262.1
300.65 K, x1 = 0.238	825.16	1229.7
300.65 K, x1 = 0.35	811.468	1198.2
300.65 K, x1 = 0.455	798.683	1168.9
300.65 K, x1 = 0.557	786.313	1140.5
300.65 K, x1 = 0.654	774.466	1113.6
300.65 K, x1 = 0.746	763.325	1088.4
300.65 K, x1 = 0.834	752.561	1064.5
300.65 K, x1 = 0.902	744.252	1045.9
300.65 K, x1 = 0.959	737.326	1030.6
300.65 K, x1 = 1	732.225	1019.8
303.15 K, x1 = 0.062	844.378	1269.2
303.15 K, x1 = 0.123	836.793	1251.8
303.15 K, x1 = 0.238	822.9	1219.2
303.15 K, x1 = 0.35	809.173	1187.7
303.15 K, x1 = 0.455	796.342	1158.2
303.15 K, x1 = 0.557	783.933	1129.8
303.15 K, x1 = 0.654	772.039	1102.8
303.15 K, x1 = 0.746	760.846	1077.5
303.15 K, x1 = 0.834	750.063	1053.5
303.15 K, x1 = 0.902	741.716	1034.8
303.15 K, x1 = 0.959	734.772	1019.6
303.15 K, x1 = 1	729.647	1008.6
305.65 K, x1 = 0.062	842.155	1258.9
305.65 K, x1 = 0.123	834.557	1241.4
305.65 K, x1 = 0.238	820.611	1208.8
305.65 K, x1 = 0.35	806.841	1177.1
305.65 K, x1 = 0.455	793.966	1147.5
305.65 K, x1 = 0.557	781.512	1119
305.65 K, x1 = 0.654	769.583	1091.9
305.65 K, x1 = 0.746	758.333	1066.6
305.65 K, x1 = 0.834	747.515	1042.5
305.65 K, x1 = 0.902	739.137	1023.8
305.65 K, x1 = 0.959	732.166	1008.5
305.65 K, x1 = 1	727.038	997.52
308.15 K, x1 = 0.062	839.962	1248.7
308.15 K, x1 = 0.123	832.343	1231.1
308.15 K, x1 = 0.238	818.339	1198.4
308.15 K, x1 = 0.35	804.54	1166.7
308.15 K, x1 = 0.455	791.627	1137.1
308.15 K, x1 = 0.557	779.104	1108.3
308.15 K, x1 = 0.654	767.142	1081.2
308.15 K, x1 = 0.746	755.854	1055.7
308.15 K, x1 = 0.834	745.002	1031.6
308.15 K, x1 = 0.902	736.575	1012.8
308.15 K, x1 = 0.959	729.598	997.44
308.15 K, x1 = 1	724.443	986.39
310.65 K, x1 = 0.062	837.759	1238.5
310.65 K, x1 = 0.123	830.128	1220.9
310.65 K, x1 = 0.238	816.051	1188
310.65 K, x1 = 0.35	802.206	1156.1
310.65 K, x1 = 0.455	789.243	1126.3
310.65 K, x1 = 0.557	776.705	1097.6
310.65 K, x1 = 0.654	764.679	1070.4
310.65 K, x1 = 0.746	753.335	1044.9
310.65 K, x1 = 0.834	742.455	1020.6
310.65 K, x1 = 0.902	733.99	1001.8
310.65 K, x1 = 0.959	726.994	986.36
310.65 K, x1 = 1	721.826	975.42
313.15 K, x1 = 0.062	835.532	1228.3
313.15 K, x1 = 0.123	827.882	1210.7
313.15 K, x1 = 0.238	813.765	1177.8
313.15 K, x1 = 0.35	799.872	1145.7
313.15 K, x1 = 0.455	786.866	1115.8
313.15 K, x1 = 0.557	774.27	1087
313.15 K, x1 = 0.654	762.204	1059.7
313.15 K, x1 = 0.746	750.812	1034.1
313.15 K, x1 = 0.834	739.901	1009.8
313.15 K, x1 = 0.902	731.4	990.86
313.15 K, x1 = 0.959	724.383	975.56
313.15 K, x1 = 1	719.179	964.53
315.65 K, x1 = 0.062	833.306	1218.3
315.65 K, x1 = 0.123	825.641	1200.6
315.65 K, x1 = 0.238	811.445	1167.5
315.65 K, x1 = 0.35	797.52	1135.4
315.65 K, x1 = 0.455	784.471	1105.4
315.65 K, x1 = 0.557	771.824	1076.4
315.65 K, x1 = 0.654	759.71	1049.1
315.65 K, x1 = 0.746	748.28	1023.4
315.65 K, x1 = 0.834	737.319	998.93
315.65 K, x1 = 0.902	728.791	980.02
315.65 K, x1 = 0.959	721.749	964.74
315.65 K, x1 = 1	716.527	953.54
318.15 K, x1 = 0.062	831.175	1208.1
318.15 K, x1 = 0.123	823.476	1190.2
318.15 K, x1 = 0.238	809.233	1157
318.15 K, x1 = 0.35	795.26	1124.9
318.15 K, x1 = 0.455	782.164	1094.8
318.15 K, x1 = 0.557	769.47	1065.8
318.15 K, x1 = 0.654	757.309	1038.5
318.15 K, x1 = 0.746	745.827	1012.6
318.15 K, x1 = 0.834	734.831	988.25
318.15 K, x1 = 0.902	726.264	969.29
318.15 K, x1 = 0.959	719.189	953.77
318.15 K, x1 = 1	713.96	942.67
320.65 K, x1 = 0.062	828.907	1197.9
320.65 K, x1 = 0.123	821.186	1180
320.65 K, x1 = 0.238	806.89	1146.7
320.65 K, x1 = 0.35	792.863	1114.4
320.65 K, x1 = 0.455	779.723	1084.3
320.65 K, x1 = 0.557	766.974	1055.2
320.65 K, x1 = 0.654	754.765	1027.7
320.65 K, x1 = 0.746	743.239	1001.8
320.65 K, x1 = 0.834	732.197	977.45
320.65 K, x1 = 0.902	723.589	958.35
320.65 K, x1 = 0.959	716.494	942.81
320.65 K, x1 = 1	711.25	931.73
323.15 K, x1 = 0.062	826.773	1187.7
323.15 K, x1 = 0.123	819.029	1169.7
323.15 K, x1 = 0.238	804.681	1136.3
323.15 K, x1 = 0.35	790.599	1103.9
323.15 K, x1 = 0.455	777.399	1073.7
323.15 K, x1 = 0.557	764.613	1044.6
323.15 K, x1 = 0.654	752.347	1017.1
323.15 K, x1 = 0.746	740.77	991.05
323.15 K, x1 = 0.834	729.685	966.6
323.15 K, x1 = 0.902	721.039	947.53
323.15 K, x1 = 0.959	713.92	931.92
323.15 K, x1 = 1	708.642	920.73
